Laboratory results published in ChEMBL document CHEMBL6177998, “Rational Design of Dual Degraders by Incorporating Molecular Glue Structural Features into PROTAC Degraders” (J Med Chem, 2025).

Experiments:
Type in all cases: cell-based
[1] = molecular target: T1, Protein cereblon/Androgen receptor (Homo sapiens, UniProt P10275+Q96SW2); assay: PROTAC activity at CRBN/AR in human 22Rv1 cells assessed as induction of AR degradation at 1 uM incubated for 24 hrs by Western blot analysis relative to control
T1 sequence (P10275 whole entry, looked up): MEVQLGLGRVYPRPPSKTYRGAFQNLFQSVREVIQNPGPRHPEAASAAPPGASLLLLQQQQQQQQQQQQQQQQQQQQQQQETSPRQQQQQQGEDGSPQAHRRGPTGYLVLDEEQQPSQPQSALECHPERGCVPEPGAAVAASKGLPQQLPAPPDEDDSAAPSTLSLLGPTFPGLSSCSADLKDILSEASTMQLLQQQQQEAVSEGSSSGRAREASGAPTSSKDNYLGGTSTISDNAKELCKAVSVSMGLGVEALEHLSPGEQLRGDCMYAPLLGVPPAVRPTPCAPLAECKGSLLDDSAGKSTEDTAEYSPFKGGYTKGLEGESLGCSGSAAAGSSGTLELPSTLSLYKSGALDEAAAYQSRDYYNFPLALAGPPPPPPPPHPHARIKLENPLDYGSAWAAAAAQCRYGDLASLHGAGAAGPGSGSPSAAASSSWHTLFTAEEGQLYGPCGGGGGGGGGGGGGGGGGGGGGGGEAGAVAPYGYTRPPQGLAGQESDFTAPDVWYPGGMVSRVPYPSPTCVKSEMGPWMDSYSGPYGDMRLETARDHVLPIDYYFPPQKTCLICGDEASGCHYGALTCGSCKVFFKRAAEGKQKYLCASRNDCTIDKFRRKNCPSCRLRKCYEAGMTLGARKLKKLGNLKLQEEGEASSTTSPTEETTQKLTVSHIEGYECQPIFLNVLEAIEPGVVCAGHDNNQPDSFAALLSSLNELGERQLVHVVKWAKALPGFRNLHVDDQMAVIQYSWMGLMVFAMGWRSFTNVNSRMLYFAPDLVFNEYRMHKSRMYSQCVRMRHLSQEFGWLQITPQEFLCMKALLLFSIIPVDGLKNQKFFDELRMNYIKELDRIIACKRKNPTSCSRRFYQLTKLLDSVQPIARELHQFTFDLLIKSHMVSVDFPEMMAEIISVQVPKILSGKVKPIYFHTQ
T1 sequence (Q96SW2 whole entry, looked up): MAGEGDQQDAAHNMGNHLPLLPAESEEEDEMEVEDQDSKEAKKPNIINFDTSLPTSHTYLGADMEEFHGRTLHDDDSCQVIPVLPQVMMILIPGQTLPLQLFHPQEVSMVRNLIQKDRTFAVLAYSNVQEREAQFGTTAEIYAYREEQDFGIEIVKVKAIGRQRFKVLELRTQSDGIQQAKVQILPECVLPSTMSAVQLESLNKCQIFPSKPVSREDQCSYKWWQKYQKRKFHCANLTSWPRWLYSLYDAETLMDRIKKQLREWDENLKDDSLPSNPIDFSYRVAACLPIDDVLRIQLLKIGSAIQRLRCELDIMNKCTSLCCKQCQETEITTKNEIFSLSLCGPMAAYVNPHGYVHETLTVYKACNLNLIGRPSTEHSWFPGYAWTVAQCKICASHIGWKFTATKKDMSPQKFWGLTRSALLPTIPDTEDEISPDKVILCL

[2] = molecular target: T1, Protein cereblon/Androgen receptor; assay: PROTAC activity at CRBN/AR in human 22Rv1 cells assessed as induction of AR degradation at 5 uM incubated for 24 hrs by Western blot analysis relative to control
[3] = tested on: Protein cereblon/Androgen receptor (Homo sapiens), P10275+Q96SW2 [UNDEFINED MUTATION]; assay: PROTAC activity at CRBN/Androgen receptor splice variant 7 in human 22Rv1 cells assessed as induction of AR-V7 degradation at 1 uM incubated for 24 hrs by Western blot analysis relative to control
Protein cereblon/Androgen receptor (Homo sapiens), P10275+Q96SW2 [UNDEFINED MUTATION], sequence (P10275 whole entry, looked up, change not shown, canonical isoform): as the sequence (P10275 whole entry, looked up) above
Protein cereblon/Androgen receptor (Homo sapiens), P10275+Q96SW2 [UNDEFINED MUTATION], sequence (Q96SW2 whole entry, looked up, change not shown, canonical isoform): as the sequence (Q96SW2 whole entry, looked up) above

[4] = tested on: Protein cereblon/Androgen receptor (Homo sapiens), P10275+Q96SW2 [UNDEFINED MUTATION]; assay: PROTAC activity at CRBN/Androgen receptor splice variant 7 in human 22Rv1 cells assessed as induction of AR-V7 degradation at 5 uM incubated for 24 hrs by Western blot analysis relative to control
[5] = molecular target: T1, Protein cereblon/Androgen receptor; assay: PROTAC activity at CRBN/AR in human VCaP cells assessed as induction of AR degradation at 1 uM incubated for 24 hrs by Western blot analysis relative to control
[6] = molecular target: T1, Protein cereblon/Androgen receptor; assay: PROTAC activity at CRBN/AR in human VCaP cells assessed as induction of AR degradation at 5 uM incubated for 24 hrs by Western blot analysis relative to control
[7] = tested on: Protein cereblon/Androgen receptor (Homo sapiens), P10275+Q96SW2 [UNDEFINED MUTATION]; assay: PROTAC activity at CRBN/Androgen receptor splice variant 7 in human VCaP cells assessed as induction of AR-V7 degradation at 1 uM incubated for 24 hrs by Western blot analysis relative to control
[8] = tested on: Protein cereblon/Androgen receptor (Homo sapiens), P10275+Q96SW2 [UNDEFINED MUTATION]; assay: PROTAC activity at CRBN/Androgen receptor splice variant 7 in human VCaP cells assessed as induction of AR-V7 degradation at 5 uM incubated for 24 hrs by Western blot analysis relative to control
[9] = molecular target: T2, Protein cereblon/Eukaryotic peptide chain release factor GTP-binding subunit ERF3A (Homo sapiens, UniProt Q96SW2+P15170); assay: Molecular glue activity at CRBN/GSPT1 in human 22Rv1 cells assessed as induction of GSPT1 degradation at 1 uM incubated for 24 hrs by Western blot analysis relative to control
T2 sequence (P15170 whole entry, looked up): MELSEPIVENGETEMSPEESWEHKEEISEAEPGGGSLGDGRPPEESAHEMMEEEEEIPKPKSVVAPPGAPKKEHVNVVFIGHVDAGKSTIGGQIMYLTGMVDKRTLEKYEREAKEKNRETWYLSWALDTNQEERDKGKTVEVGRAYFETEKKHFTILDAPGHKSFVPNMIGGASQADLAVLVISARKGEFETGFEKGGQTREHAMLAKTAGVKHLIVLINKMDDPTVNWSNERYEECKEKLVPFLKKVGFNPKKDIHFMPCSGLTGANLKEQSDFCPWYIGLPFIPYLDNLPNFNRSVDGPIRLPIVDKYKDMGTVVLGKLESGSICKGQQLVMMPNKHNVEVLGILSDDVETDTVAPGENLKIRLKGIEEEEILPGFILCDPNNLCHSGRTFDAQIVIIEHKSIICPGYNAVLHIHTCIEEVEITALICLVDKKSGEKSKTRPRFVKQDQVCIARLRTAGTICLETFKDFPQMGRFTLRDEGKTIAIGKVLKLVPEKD
T2 sequence (Q96SW2 whole entry, looked up): as the sequence (Q96SW2 whole entry, looked up) above

[10] = molecular target: T2, Protein cereblon/Eukaryotic peptide chain release factor GTP-binding subunit ERF3A; assay: Molecular glue activity at CRBN/GSPT1 in human 22Rv1 cells assessed as induction of GSPT1 degradation at 5 uM incubated for 24 hrs by Western blot analysis relative to control
[11] = molecular target: T1, Protein cereblon/Androgen receptor; assay: PROTAC activity at CRBN/AR in human 22Rv1 cells assessed as induction of AR degradation at 0.01 uM incubated for 24 hrs by Western blot analysis relative to control
[12] = molecular target: T1, Protein cereblon/Androgen receptor; assay: PROTAC activity at CRBN/AR in human 22Rv1 cells assessed as induction of AR degradation at 0.1 uM incubated for 24 hrs by Western blot analysis relative to control
[13] = tested on: Protein cereblon/Androgen receptor (Homo sapiens), P10275+Q96SW2 [UNDEFINED MUTATION]; assay: PROTAC activity at CRBN/Androgen receptor splice variant 7 in human 22Rv1 cells assessed as induction of AR-V7 degradation at 0.01 uM incubated for 24 hrs by Western blot analysis relative to control
[14] = tested on: Protein cereblon/Androgen receptor (Homo sapiens), P10275+Q96SW2 [UNDEFINED MUTATION]; assay: PROTAC activity at CRBN/Androgen receptor splice variant 7 in human 22Rv1 cells assessed as induction of AR-V7 degradation at 0.1 uM incubated for 24 hrs by Western blot analysis relative to control
[15] = molecular target: T1, Protein cereblon/Androgen receptor; assay: PROTAC activity at CRBN/AR in human VCaP cells assessed as induction of AR degradation at 0.01 uM incubated for 24 hrs by Western blot analysis relative to control
[16] = molecular target: T1, Protein cereblon/Androgen receptor; assay: PROTAC activity at CRBN/AR in human VCaP cells assessed as induction of AR degradation at 0.1 uM incubated for 24 hrs by Western blot analysis relative to control
[17] = tested on: Protein cereblon/Androgen receptor (Homo sapiens), P10275+Q96SW2 [UNDEFINED MUTATION]; assay: PROTAC activity at CRBN/Androgen receptor splice variant 7 in human VCaP cells assessed as induction of AR-V7 degradation at 0.01 uM incubated for 24 hrs by Western blot analysis relative to control
[18] = tested on: Protein cereblon/Androgen receptor (Homo sapiens), P10275+Q96SW2 [UNDEFINED MUTATION]; assay: PROTAC activity at CRBN/Androgen receptor splice variant 7 in human VCaP cells assessed as induction of AR-V7 degradation at 0.1 uM incubated for 24 hrs by Western blot analysis relative to control
[19] = molecular target: T2, Protein cereblon/Eukaryotic peptide chain release factor GTP-binding subunit ERF3A; assay: Molecular glue activity at CRBN/GSPT1 in human 22Rv1 cells assessed as induction of GSPT1 degradation at 0.01 uM incubated for 24 hrs by Western blot analysis relative to control
[20] = molecular target: T2, Protein cereblon/Eukaryotic peptide chain release factor GTP-binding subunit ERF3A; assay: Molecular glue activity at CRBN/GSPT1 in human 22Rv1 cells assessed as induction of GSPT1 degradation at 0.1 uM incubated for 24 hrs by Western blot analysis relative to control

Compound	Activity [1] [%]	Activity [2] [%]	Activity [3] [%]	Activity [4] [%]	Activity [5] [%]	Activity [6] [%]	Activity [7] [%]	Activity [8] [%]	Activity [9] [%]	Activity [10] [%]	Activity [11] [%]	Activity [12] [%]	Activity [13] [%]	Activity [14] [%]	Activity [15] [%]	Activity [16] [%]	Activity [17] [%]	Activity [18] [%]	Activity [19] [%]	Activity [20] [%]
CC(C)(c1ccc(OCC2CCN(C(=O)CCCCC#Cc3ccc4c(c3)C(=O)N(C3CCC(=O)NC3=O)C4=O)CC2)cc1)c1ccc(OC[C@H](O)CCl)cc1 (stereo not given in full)	13.7	< 5	34.8	14.6	< 5	18.6	< 5	26.4	25.5	30.7										
CC(C)(c1ccc(OCC2CN(S(C)(=O)=O)C2)cc1)c1cc(Cl)c(OCC2CCN(C(=O)CCCCCNc3ccc4c(c3)C(=O)N(C3CCC(=O)NC3=O)C4=O)CC2)c(C#N)c1 (stereo not given)											51.3	78.3	73.9	81.2	53.6	75.6	< 5	48	93.2	96.8
COc1ccc(C(C)(C)c2cc(Cl)c(OCC3CCN(C(=O)CCCCCNc4ccc(C(=O)N[C@H]5CCC(=O)NC5=O)c(F)c4)CC3)c(C#N)c2)cc1											23.9	< 5	14.5	< 5	15.7	< 5	< 5	< 5	< 5	< 5
CC(C)(c1ccc(OCC2CCN(C3CN(C(=O)CCCNc4ccc5c(c4)C(=O)N(C4CCC(=O)NC4=O)C5=O)C3)CC2)cc1)c1ccc(OC[C@H](O)CCl)cc1 (stereo not given in full)	12.1	10.2	5	< 5	6.8	25.4	< 5	24.2	57.5	76.7										
CC(C)(c1ccc(OCC2CCN(C(=O)CCCCOc3ccc4c(c3)C(=O)N(C3CCC(=O)NC3=O)C4=O)CC2)cc1)c1ccc(OC[C@H](O)CCl)cc1 (stereo not given in full)	< 5	32.3	33.3	56	< 5	< 5	< 5	< 5	29.6	44.4										
CC(C)(c1ccc(OCC2CCN(C3CN(C(=O)CCNc4ccc5c(c4)C(=O)N(C4CCC(=O)NC4=O)C5=O)C3)CC2)cc1)c1ccc(OC[C@H](O)CCl)cc1 (stereo not given in full)	< 5	< 5	5	< 5	32.7	19.8	20	11.9	14.4	15.5										
CC(C)(c1ccc(OCC2CCN(C3CN(C(=O)CNc4ccc5c(c4)C(=O)N(C4CCC(=O)NC4=O)C5=O)C3)CC2)cc1)c1ccc(OC[C@H](O)CCl)cc1 (stereo not given in full)	< 5	< 5	< 5	< 5	< 5	< 5	< 5	< 5	37	60.9										
CC(C)(c1ccc(OCC2CCN(C(=O)CCCC#Cc3ccc4c(c3)C(=O)N(C3CCC(=O)NC3=O)C4=O)CC2)cc1)c1ccc(OC[C@H](O)CCl)cc1 (stereo not given in full)	24.6	< 5	48.2	18.1	8.4	< 5	7.4	5.2	28.5	34										
CC(C)(c1ccc(OCC2CCN(C3CN(C(=O)CCCCNc4ccc5c(c4)C(=O)N(C4CCC(=O)NC4=O)C5=O)C3)CC2)cc1)c1ccc(OC[C@H](O)CCl)cc1 (stereo not given in full)	13.5	< 5	5	< 5	17.7	40.9	14.9	6.4	33.8	41.2										
CC(C)(c1ccc(OCC2CCN(C(=O)CCCCCOc3ccc4c(c3)C(=O)N(C3CCC(=O)NC3=O)C4=O)CC2)cc1)c1ccc(OC[C@H](O)CCl)cc1 (stereo not given in full)	5.8	43.6	29.9	67.4	5.9	20	< 5	34	86.1	95.5										

Second part, the compound after the results:

Activity [1] [%]	Activity [2] [%]	Activity [3] [%]	Activity [4] [%]	Activity [5] [%]	Activity [6] [%]	Activity [7] [%]	Activity [8] [%]	Activity [9] [%]	Activity [10] [%]	Activity [11] [%]	Activity [12] [%]	Activity [13] [%]	Activity [14] [%]	Activity [15] [%]	Activity [16] [%]	Activity [17] [%]	Activity [18] [%]	Activity [19] [%]	Activity [20] [%]	Compound
20.1	16.4	34.4	33.9	< 5	8	< 5	< 5	77.9	92.7											CC(C)(c1ccc(OCC2CCN(C(=O)CCCCCCOc3ccc4c(c3)C(=O)N(C3CCC(=O)NC3=O)C4=O)CC2)cc1)c1ccc(OC[C@H](O)CCl)cc1 (stereo not given in full)
8.6	21.6	11.8	9.3	8.5	13.7	5.9	8.2	86	89.3											CC(C)(c1ccc(OCC2CCN(C(=O)CCCCNc3ccc4c(c3)C(=O)N(C3CCC(=O)NC3=O)C4=O)CC2)cc1)c1ccc(OC[C@H](O)CCl)cc1 (stereo not given in full)
< 5	7.5	< 5	< 5	4.9	10.2	< 5	7	37.2	42											CC(C)(c1ccc(OCC2CCN(C(=O)CCCCCCCNc3ccc4c(c3)C(=O)N(C3CCC(=O)NC3=O)C4=O)CC2)cc1)c1ccc(OC[C@H](O)CCl)cc1 (stereo not given in full)
7.8	25	12.5	52.3	< 5	< 5	8.4	14.3	32.3	45.8											CC(C)(c1ccc(OCC2CCN(C(=O)CCCCCCCNc3cccc4c3C(=O)N(C3CCC(=O)NC3=O)C4=O)CC2)cc1)c1ccc(OC[C@H](O)CCl)cc1 (stereo not given in full)
10.1	38	< 5	11	< 5	< 5	< 5	9.2	36.5	39.8											CC(C)(c1ccc(OCC2CCN(C(=O)CCCCCCNc3cccc4c3C(=O)N(C3CCC(=O)NC3=O)C4=O)CC2)cc1)c1ccc(OC[C@H](O)CCl)cc1 (stereo not given in full)
12.4	22.3	20.1	27.1	< 5	< 5	< 5	< 5	39.6	47.1											CC(C)(c1ccc(OCC2CCN(C(=O)CCCCNc3cccc4c3C(=O)N(C3CCC(=O)NC3=O)C4=O)CC2)cc1)c1ccc(OC[C@H](O)CCl)cc1 (stereo not given in full)
14.4	33.1	8.6	30.7	< 5	14.2	< 5	< 5	81	79.8											CC(C)(c1ccc(OCC2CCN(C(=O)CCCCCCNc3ccc4c(c3)C(=O)N(C3CCC(=O)NC3=O)C4=O)CC2)cc1)c1ccc(OC[C@H](O)CCl)cc1 (stereo not given in full)
11.7	19.7	28.4	25.5	< 5	11.7	21.6	36.1	65.1	68.9											CC(C)(c1ccc(OCC2CCN(C(=O)CCCCCNc3cccc4c3C(=O)N(C3CCC(=O)NC3=O)C4=O)CC2)cc1)c1ccc(OC[C@H](O)CCl)cc1 (stereo not given in full)
